{"source": "patent US20060052419A1", "about": "“Use of pyridly amides as inhibitors of angiogenesis” (priority 2002, published 2006)", "key": {"[1]": {"tested_on": "VEGF production in HepG2 cells", "test": "VEGF production in HepG2 cells (ELISA of culture supernatant)", "format": "cell-based, human", "description": "Trypsin/EDTA: 0.05% (w/v) trypsin (Difco, Detroit, USA)+0.016% (w/v) EDTA (Sigma, Deisenhofen, Germany). N-[4-(1-benzoyl-piperidin-4-yl)-butyl]-3-(pyridin-3-yl)-acrylamide (in the following also referred to as BPPA) was synthesized as described in the literature, by the department of chemistry at Klinge Pharma GmbH, Munich, Germany.\nStock solutions of test compound: a 10 mM solution was prepared in dimethyl sulfoxide (DMSO) and stored at −18° C.; further dilution steps were done in ethanol.\nThe human-derived tumor cell lines HepG2 (liver carcinoma) was obtained from the American Type Culture Collection (ATCC), Rockville, Md., USA.\nRichter's Improved Minimal Essential Medium, Zinc Option (IMEM-ZO), was purchased from Gibco BRL, Life Technologies (Eggenstein, Germany). The standard medium MEM and the human serum albumin were purchased from Sigma (Deisenhofen, Germany). The medium powder was dissolved in deionized water, the pH titrated to 7.2 with HCl/NaOH and sterilized by filtration. The medium was supplemented with 10% fetal calf serum (FCS), PAN Systems GmbH, Aidenbach, Germany.\nMonolayer cells were detached from 75 cm^2 flasks by removing the growth medium and adding 3 ml trypsin/EDTA solution to each flask. After about 5-10 minutes incubation at 37° C., when the cells were detached from the surface of the dishes, trypsinization was stopped by adding 3 ml Richter's IMEM-ZO medium containing 10% FCS. The cells were suspended by repeated pipetting. For predilution, an aliquot of 20 μl was added to 10 ml Casyton isotonic solution (No. 043-90037P, Scharfe System, Reutlingen, Germany) using a Sysmex Auto Dilutor Type AD-260 (Toa, Medical Electronics Co. Ltd., Kobe, Japan). The cell number was determined by electronic cell volume measurements by counting with a CASY 1 Cell Counter & Analyzer System, Model TTC (Schärfe System, Reutlingen, Germany) equipped with a 60 μm capillary. Following dilution in growth medium (IMEM-ZO), the cells were finally seeded at a density of 25,000 cells per 1000 μl in 24-well culture dishes (Greiner, Frickenhausen, Germany) for the VEGF assay and incubated at 37° C. in a humidified atmosphere of 5% CO2 in air.\nAfter six days of incubation, when the cells were nearly confluent, the medium was removed and cultures were replenished with 1 ml fresh serum free MEM medium containing 0.1% human serum albumin plus the test substance or the solvent ethanol as control. The cells were then incubated at 37° C. in a humidified atmosphere of 5% CO2 in air. On the next day the medium was removed again and the cultures were incubated with further 0.5 ml serum free MEM containing 0.1% human serum albumin plus the test substance or the solvent ethanol as control. After 48 and 72 hours the medium was collected, centrifuged at 1000 rpm for 5 minutes to remove cell debris. Supernatants were stored at −20° C. until quantification of the VEGF concentration. Furthermore the protein content of the remaining cell layer in each well was determined as reference parameter.\nVEGF determination was measured in the supernatants of the cell cultures using a commercially available ELISA kit (R&D, Systems, Wiesbaden/Germany). The method for the determination was performed as described in the test kit brochure.\nThe results are summarized in the following Table 1, where the VEGF concentration in the supernatant after 48 h and 72 h of incubation was determined. […]"}, "[2]": {"tested_on": "murine renal cell carcinoma (RENCA)", "test": "Blood vessel density in primary tumors of murine renal cell carcinoma (RENCA) model", "format": "in vivo, Balb/c mice", "settings": "sacrifice day 21", "description": "Murine RENCA cells were originally obtained from a tumor that arose spontaneously in the kidney of BALB/c mice. Histologically, RENCA consists of granular cell type adenocarcinoma, which is pleomorphic with large nuclei. Monolayers of murine RENCA cells were grown in RPMI 1640 with phenol red supplemented with 10% FCS, 2 mM L-glutamine, 100 units penicillin/ml, and 100 μg of streptomycin/ml. RENCA cells were cultured in a humidified atmosphere of 95% air and-5% carbon dioxide at 37° C. Media were routinely changed every 3 days.\nFor the in vivo administration N-[4-(1-benzoyl-piperidin-4-yl)-butyl]-3-(pyridin-3-yl)-acrylamide was solubilized in a 0.9% saline solution and TNP-470 in a saline solution containing 3% absolute ethanol.\nAll experiments were carried out using 6-8 weeks old male Balb/c mice (approximate weight, 20 g). Mice are maintained in separated conventional housing at constant temperature and humidity […]\nAll animals were sacrificed on day 21 after tumor implantation and the tumor tissue of all animals was surgically removed and quickly frozen in liquid nitrogen. […] For the visualization of the blood vessels, immunohistochemical staining for CD 31 (PECAM-1 and MEC 13.3; PharMingen, San Diego, Calif.) was performed, and vessels were counted microscopically using a defined magnification."}, "[3]": {"test": "Maximum tolerated dose (MTD)", "parameters": "species or system Balb/c mice", "settings": "Balb/c, mouse, in vivo", "description": "N-[4-(1-benzoyl-piperidin-4-yl)-butyl]-3-(pyridin-3-yl)-acrylamide was given to the animals p.o. twice a day on days 10, 11, 12, 13, 14, and 15 after tumor implantation. The doses were 3, 5, 6, or 10 mg/kg per each administration. TNP-470 was injected into the animals s.c. on days 2, 4, 6, 8, 10, 12, 14, 16, 18 and 20 after tumor implantation at the maximum tolerated dose, 30 mg/kg. Control animals received the vehicle (0.9% saline solution) p.o. twice a day on days 10, 11, 12, 13, 14, and 15 after tumor implantation. At least seven animals per test group were used.\nTNP-470 was administered at the MTD (maximum tolerated dose), 30 mg/kg, and over a longer time range than BPPA which was given below the MTD (approximately 12 mg/kg)."}}}
{"smiles": "O=C(C=Cc1cccnc1)NCCCCC1CCN(C(=O)c2ccccc2)CC1", "note": "[BPPA, N-[4-(1-benzoyl-piperidin-4-yl)-butyl]-3-(pyridin-3-yl)-acrylamide]", "values": [{"measurement": "VEGF concentration in the supernatant", "setting": "[1]; 2 nM compound in medium, 48 hours incubation", "value": 208.30, "unit": "pg/200 μl"}, {"measurement": "VEGF concentration in the supernatant", "setting": "[1]; 2 nM compound in medium, 72 hours incubation", "value": 0.00, "unit": "pg/200 μl"}, {"measurement": "VEGF concentration in the supernatant", "setting": "[1]; 20 nM compound in medium, 48 hours incubation", "value": 0.00, "unit": "pg/200 μl"}, {"measurement": "VEGF concentration in the supernatant", "setting": "[1]; 20 nM compound in medium, 72 hours incubation", "value": 0.00, "unit": "pg/200 μl"}, {"measurement": "inhibition of the production of VEGF", "setting": "[1]; after 48 hours of incubation, FIG. 1", "value": "inhibited the production of VEGF in HepG2 cells very effectively"}, {"measurement": "vessel density in the RENCA tumor", "setting": "[2]; 3, 5, 6 and 10 mg/kg p.o. twice a day on days 10-15 after tumor implantation, CD 31 staining", "value": "significantly reduced the vessel density"}, {"measurement": "MTD", "setting": "[3]; po", "value": "~12", "unit": "mg/kg"}]}
{"smiles": "CO[C@@H]1[C@H](OC(=O)NC(=O)CCl)CC[C@]2(CO2)[C@H]1[C@@]1(C)O[C@@H]1CC=C(C)C", "note": "[TNP-470, reference compound]", "values": [{"measurement": "vessel density in the RENCA tumor, effectiveness compared to BPPA", "setting": "[2]; 30 mg/kg (MTD) s.c. on days 2, 4, 6, 8, 10, 12, 14, 16, 18 and 20 after tumor implantation", "value": "not as effective as BPPA"}, {"measurement": "MTD", "setting": "[3]; sc", "value": 30, "unit": "mg/kg"}]}
